Here are results for four molecules from publication PMC6484129, “Structure–function analyses reveal that a glucuronoyl esterase from Teredinibacter turnerae interacts with carbohydrates and aromatic compounds” (The Journal of Biological Chemistry, 2019).

What all share (test): inhibition of BnzGlcA hydrolysis, coupled K-URONIC assay
Holding throughout (type): biochemical

For assay [1], the target named is T1, TtCE15A (Teredinibacter turnerae, UniProt C5BN23).
T1 construct: gene TERTU_0517
An excerpt:
(§1) inhibition of BnzGlcA hydrolysis, coupled K-URONIC assay on TtCE15A

For assay [2], the target named is T2, TtCE15A (Teredinibacter turnerae, UniProt C5BN23, F174A).
T2 construct: gene TERTU_0517
T2 sequence (C5BN23 entry or part of it F174A): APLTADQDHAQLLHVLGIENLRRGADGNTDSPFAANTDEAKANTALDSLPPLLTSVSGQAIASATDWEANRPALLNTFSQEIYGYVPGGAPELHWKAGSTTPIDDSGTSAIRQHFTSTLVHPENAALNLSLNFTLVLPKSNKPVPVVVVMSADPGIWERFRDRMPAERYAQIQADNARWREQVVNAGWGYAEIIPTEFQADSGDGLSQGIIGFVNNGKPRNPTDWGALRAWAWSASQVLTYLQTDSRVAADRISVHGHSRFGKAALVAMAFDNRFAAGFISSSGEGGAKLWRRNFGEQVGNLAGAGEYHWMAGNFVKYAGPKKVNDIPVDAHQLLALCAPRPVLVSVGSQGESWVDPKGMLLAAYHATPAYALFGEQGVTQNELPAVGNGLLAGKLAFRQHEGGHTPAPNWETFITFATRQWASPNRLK
From the text: as §1

Assay [3] addresses T3, TtCE15A (Teredinibacter turnerae, UniProt C5BN23, F174D).
T3 construct: gene TERTU_0517
From the text: as §1

Read-outs that look alike come from different tables or passages of the source.

T1 sequence (C5BN23 entry or part of it): as the sequence (C5BN23 entry or part of it F174A) above, with A152F counted along it
T3 sequence (C5BN23 entry or part of it F174D): as the sequence (C5BN23 entry or part of it F174A) above, with A152D counted along it

As to `COc1cc(/C=C/C(=O)O)ccc1O` [FA, ferulic acid], the results for the IC50 on TtCE15A [1] (read-out: FA), on TtCE15A [2] (read-out: FA) and on TtCE15A [3] (read-out: FA) were 550 ± 45 µM, 84 ± 5 µM and 400 ± 40 µM, respectively.

On to `COc1cc(/C=C/C(=O)O)cc(OC)c1O` [SA, sinapic acid], for which the IC50 came to 560 ± 30 µM on TtCE15A [1] (read-out: SA), 190 ± 22 µM on TtCE15A [2] (read-out: SA) and 770 ± 64 µM on TtCE15A [3] (read-out: SA).

Regarding `CO[C@@H]1C(C(=O)O)O[C@H](O[C@H]2[C@H](O[C@@H]3CO[C@@H](O[C@H](CO)[C@H](O)[C@@H](O)CO)[C@H](O)[C@H]3O)OC[C@@H](O[C@@H]3OC[C@@H](O)[C@H](O)[C@H]3O)[C@@H]2O)[C@H](O)[C@H]1O` (stereo partly drawn) [XUXXR, 2^3-(4-O-methyl-D-glucuronyl)-α-D-xylotetraitol], the IC50 on TtCE15A [1] (0.4 mM BnzGlcA, pH 7.5, <10% DMSO, read-out: XUXXR) was 5510 ± 280 µM.

Turning to `O=C(O)/C=C/c1ccc(O)cc1` [pCoA, p-coumaric acid], the IC50 was 830 ± 40 µM at TtCE15A [1] (read-out: pCoA) and 4840 ± 470 µM on TtCE15A [2] (read-out: pCoA).
